Source: PMC5901744 (Science (New York, N.Y.), 2017)

Experiments:
[1] = test system: SaHEPD (hydroxyethylphosphonate dioxygenase from Streptomyces albus; class II HEPD); conditions: read-out: Km,HEP; Fe(II), O2; product MPn instead of HMP
[2] = test system: SaHEPD (hydroxyethylphosphonate dioxygenase from Streptomyces albus; class II HEPD); assay: steady-state kinetics; type: biochemical; conditions: Fe(II), O2

For O=P(O)(O)CCO [2-HEP, 2-hydroxyethylphosphonate], the Km [1] was 15 ± 2 µM and the “Km,HEP” value [2] was “very similar to those of purified wild-type SaHEPD (Fig. S6 and S7, Table S2)”.
